Results on one molecule are retold here after patent publication US20060247129A1, “Surfactant compounds and agrochemical compositions” (Imperial Chemical Industries PLC, priority 2003, published 2006).

Holding throughout (test): glasshouse herbicide spray test, % weed control, adjuvant with glyphosate potassium salt
Common to all, as to assay type: in vivo
Common to all, as to details: adjuvant 0 % v/v, 19 days after treatment

For one assay, the system named is Sida Spinosa. The protocol:
(§1) The compound of Synthesis Example SE1 was tested as an adjuvant with glyphosate potassium salt, mixing the glyphosate and adjuvant in a tank mix using concentrations of glyphosate from 0.125 to 2 g.l-1 and of adjuvant from 0.003125 to 0.2% v/v. The tank mixes were sprayed as a herbicide on a variety of test species at an application rate of 200 l.ha^−1 to give application rates of glyphosate of from 25 to 400 g (active ingredient).ha^−1. The plants were grown in a warm glasshouse and assessed 19 days after treatment for % control—the mean of three replicates for visually assessed % weed control, relative to unsprayed plants of each species in the same test.
(§2) Example AE1 was repeated but using the compound made in Synthesis Example SE4 as the adjuvant.

Another assay deals with Abutilon Theophrasti. The protocol: as §1, §2
For the next assay, the system named is Solanum nigra. The procedure:
as §1, §2

The test system of another assay is Portulaca oleracea. The protocol:
as §1, §2

The subject of a further assay is Echinochloa crus-galli. The procedure: as §1, §2
For another assay, the system named is Sorghum halepense. The protocol: as §1, §2

Counter-ions that a name gives are not always drawn.

Consider `O=C(O)CNCP(=O)(O)O` [Glyphosate, glyphosate potassium salt, reference compound], for which the “% control SIDSP” value is given as 30% in the assay with Sida Spinosa (glyphosate 50 g ai/ha), 35% in the assay on Sida Spinosa (glyphosate 100 g ai/ha), 58% in the assay with Sida Spinosa (glyphosate 200 g ai/ha) and 75% in the assay with Sida Spinosa (glyphosate 400 g ai/ha). The “% control ABUTH” value in the assay on Abutilon Theophrasti (glyphosate 200 g ai/ha) was found to be 53%; in the assay on Abutilon Theophrasti (glyphosate 400 g ai/ha), 73%. The “% control SOLNI” value in the assay with Solanum nigra (glyphosate 50 g ai/ha) is listed as 37%; in the assay with Solanum nigra (glyphosate 100 g ai/ha), 65%; in the assay with Solanum nigra (glyphosate 200 g ai/ha), 77%; with Solanum nigra (glyphosate 400 g ai/ha), 78%. Moreover, the “% control POROC” value in the assay with Portulaca oleracea (glyphosate 50 g ai/ha) is listed as 3%; with Portulaca oleracea (glyphosate 100 g ai/ha), 10%; in the assay on Portulaca oleracea (glyphosate 200 g ai/ha) it was 22%; in the assay with Portulaca oleracea (glyphosate 400 g ai/ha) it was 38%. For the same molecule, the “% control ECHCG” value in the assay on Echinochloa crus-galli (glyphosate 25 g ai/ha) was 21%; in the assay with Echinochloa crus-galli (glyphosate 50 g ai/ha), 47%; with Echinochloa crus-galli (glyphosate 100 g ai/ha), 67%; in the assay on Echinochloa crus-galli (glyphosate 200 g ai/ha) it was 82%. Further, the “% control SORHA” value in the assay with Sorghum halepense (glyphosate 25 g ai/ha) was found to be 8%; in the assay with Sorghum halepense (glyphosate 50 g ai/ha), 47%; in the assay on Sorghum halepense (glyphosate 100 g ai/ha) it was 79%; in the assay on Sorghum halepense (glyphosate 200 g ai/ha), 82%.
